Experimental data: patent US7867496B2, “Use of TGF-β antagonists to limit nephrotoxicity of immunosuppressive agents” (Genzyme Corporation, priority 2004, dated 2011)
Entries after “also recorded” stand apart in the source; their conditions may differ.

Legend:
TGF-β protein = experiment: intrarenal TGF-β protein immunohistochemistry, TAC study; assay type: in vivo, rat; conditions: TAC alone
Procedure: Plasma levels of TGF-β protein were measured as described in Khanna et al. (1999) Transplantation, 67:882-889. Intrarenal protein expression of TGF-β was examined immunohistochemically as essentially as described in Khanna et al. (2000) Transplantation, 73:1543-1549; Khanna et al. (2002) Kidney Intl., 62:2257-63; and Khanna et al. (1999) Transplantation, 67:614-619. Formalin-fixed paraffin-embedded tissues were sliced into fine sections, deparaffinized in xylene and rehydrated in graded ethanol to phosphate-buffered saline (PBS). After blocking endogenous peroxidase activity for 30 minutes with methanol/H2O2 (18:1 vol/vol), nonspecific binding was blocked for 1 hour with 1.5% avidin/biotin diluted in PBS supplemented with 10% normal horse serum and 3% BSA. Tissue sections were incubated overnight at 4° C. with specific primary antibodies (50 μg/ml) in above-mentioned PBS. Following extensive washing in PBS, slides were incubated at room temperature for 1 hour with diluted (1:1,000) biotin-labeled anti-mouse IgG horse anti-serum and washed again extensively in PBS and then in the ABC solution for 30 minutes. The slides were developed for 10 minutes in diaminobenzidine (DAB) and rinsed in water for 10 minutes. The slides were then counterstained with hematoxylin and dehydrated in graded ethanol and xylene.
The slides were mounted with Permount™ for evaluation. […]

RAC-1 mRNA = experiment: intrarenal RAC-1 mRNA by real-time PCR, TAC study; assay type: in vivo, rat; conditions: TAC alone, 90 days, with respect to isograft controls
Procedure: (§1) TAC was administered at 0.25 mg/kg i.m. for 90 days; and the anti-TGF-β antibody, 1D11, was administered at 1 mg/kg twice a week. The control antibody used was 13C4.
(§2) RT-PCR was performed using a Bio-Rad iCycler™ system (Bio-Rad, Hercules, Calif.). RNAs were isolated from renal tissues using a kit from Promega (Madison, […].) and reverse-transcribed into cDNAs by using a cDNA synthesis kit from Invitrogen (Carlsbad, Calif.). The specificity of primers was tested by running a regular PCR for 40 cycles at 95° C. for 20 seconds and 60° C. for 1 minute, followed by separating in ethidium bromide containing agarose gels. The real-time PCR was performed using a SYBR Supermix kit (Bio-RAD) (40 cycles at 95° C. for 20 s and 60° C. for 1 minute). The PCR efficiency was examined by serially diluting template cDNA. The melting curve data was collected to check the PCR specificity and proper negative controls were included in each assay. The mRNA level for each gene for each sample was normalized to β-actin mRNA and presented as 2-[(Ct/β-actin-Ct/gene of interest)] as described in Khanna et al. (2005) Nephron Exp. Nephrol., 101:119-126.
(§3) Intrarenal expression of TGF-β, NOX-1 and p22phox was analyzed by RT-PCR in renal tissues from (1) isografts, (2) TAC, (3) TAC+anti-TGF-β antibody, and (3) TAC+control antibody treated animals at 90 days post transplantation. […]

NOX-1 protein = experiment: intragraft NOX-1 protein by Western blot, TAC study; assay type: in vivo, rat; conditions: TAC compared to untreated allografts and isograft controls; monohydrate
Procedure: (§4) Frozen tissues were homogenized in ice-cold PBS with 1% Triton X-100, 1 mM phenylmethysulfonyl fluoride, 35 ng/ml pepstatin A and 10 ng/ml leupeptin. After centrifugation, 50 μg: of protein was electrophoresed by SDS PAGE as described in Khanna et al. (2005) Nephron Exp. Nephrol., 101:119-126. Blots were probed with appropriate dilutions of a polyclonal anti-p22phox antibody (RS554, a gift from Marsh Lab, Bozeman, Mont.) or anti-NOX antibody (Santa Cruz Biotechnology, Santa Cruz, Calif.), incubated with a horseradish peroxidase-conjugated secondary antibody at a 1:5,000 dilution, and visualized by enhanced chemiluminescence.
(§5) Expression of p22^phox and NOX-1 proteins was analyzed in kidney tissues from isografts, untreated allografts, and animals treated with TAC. Protein lysates (10 μg) were electrophoresed, transferred to nitrocellulose paper and probed with anti-p22^phox and anti NOX-1 antibodies.

p22phox mRNA = experiment: intrarenal p22phox mRNA by real-time PCR, TAC study; assay type: in vivo, rat; conditions: TAC alone, 90 days, with respect to isograft controls
Procedure: as §1, §2, §3

TRX mRNA = experiment: intrarenal TRX mRNA by real-time PCR, TAC study; assay type: in vivo, rat; conditions: TAC alone compared to isograft controls
Procedure: as §1, §2
(§6) To further examine the effect of prolonged treatment with TAC on antioxidant genes, intrarenal mRNA expression of SOD and TRX was determined.

TGF-β mRNA = experiment: intrarenal TGF-β mRNA by real-time PCR, TAC study; assay type: in vivo, rat; conditions: TAC alone, 90 days post transplantation, with respect to isograft controls
Procedure: as §1, §2, §3

p22phox protein = experiment: intragraft p22phox protein by Western blot, TAC study; assay type: in vivo, rat; conditions: TAC compared to untreated allografts and isograft controls; monohydrate
Procedure: as §4, §5

SOD mRNA = experiment: intrarenal SOD mRNA by real-time PCR, TAC study; assay type: in vivo, rat; conditions: TAC alone compared to isograft controls
Procedure: as §1, §2, §6

renal transplant = renal transplant histology, TAC study; assay type: in vivo, rat; conditions: TAC alone compared to isografts; monohydrate
From the text: A portion of transplanted kidneys from each animal was fixed with formalin and imbedded in paraffin. Hematoxylin and eosin (H&E) and periodic acid schiff (PAS) stainings were used to assess histological changes. Renal histological changes we quantified by standard procedures. The severity of the glomerular injury was scored as described in Khanna et al. (2000) Transplantation, 73:1543-1549. Briefly, in each field, at least 50-60 glomeruli were counted for each specimen and lesions were scored on a five-point scale (0, no proliferation, almost normal histology; 1, about 25% segmental lesion; 2, segmental lesion of greater than 25% but less than 50%; 3, fibrotic lesions with diffuse proliferation; 4, almost completely fibrotic changes). PAS staining was used to determine the extent of extracellular matrix protein accumulation (not scored). Interlobular arteries in H&E-stained slides and lesions were scored.
The slides were mounted with Permount™ for evaluation. Samples from each group were graded for histopathological changes and immunohistochemical staining. The intensity of immunostaining was graded from 0 (no staining) to 4+ (maximum staining). […]
The effect of TAC, TAC+a control antibody and TAC+anti-TGF-β antibody treatment on morphological changes was assessed by histopathological examination in H&E- and PAS-stained thin kidney sections were evaluated.

NOX-1 mRNA = experiment: intrarenal NOX-1 mRNA by real-time PCR, TAC study; assay type: in vivo, rat; conditions: TAC alone, 90 days, with respect to isograft controls
Procedure: as §1, §2, §3

TGF-β = conditions: cited from earlier work

Molecule | intrarenal staining for TGF-β protein (TGF-β protein) | increase in intrarenal RAC-1 mRNA expression (RAC-1 mRNA) | intragraft expression of NOX-1 protein (NOX-1 protein) | increase in intrarenal p22phox mRNA expression (p22phox mRNA) | decrease in intrarenal TRX mRNA expression (TRX mRNA) | increase in intrarenal TGF-β mRNA expression (TGF-β mRNA) | intragraft expression of p22phox protein (p22phox protein) | decrease in intrarenal SOD mRNA expression (SOD mRNA) | renal histological changes (H&E, PAS) (renal transplant) | increase in intrarenal NOX-1 mRNA expression (NOX-1 mRNA) | Kd (TGF-β; approximately, binds TGF-β1 only, read-out: antigen affinity) | TGF-β isoform binding specificity (TGF-β; mammalian isoforms of TGF-β)
C=CC[C@@H]1/C=C(\C)C[C@H](C)C[C@H](OC)[C@H]2O[C@@](O)(C(=O)C(=O)N3CCCC[C@H]3C(=O)O[C@H](/C(C)=C/[C@@H]3CC[C@@H](O)[C@H](OC)C3)[C@H](C)[C@@H](O)CC1=O)[C@H](C)C[C@@H]2OC (relative stereo) [TAC, [3S-[3R*[E (1S*,3S*,4S*)], 4S*,5R*,8S*,9E, 12R*,14R*,15S*,16R*,18S*,19S*,26aR*]]-5,6,8,11,12,13,14,15,16,17,18,19,24,25,26,26a-hexadecahydro-5,19-dihydroxy-3-[2-(4-hydroxy-3-methoxycyclohexyl)-1-methylethenyl]-14,16-dimethoxy-4,10,12,18-tetramethyl-8-(2-propenyl)-15,19-epoxy-3H-pyrido[2,1-c][1,4]oxaazacyclotricosine-1,7,20,21 (4H,23H)-tetrone, monohydrate] | increased staining for TGF-β protein | 20 fold | increased intragraft expression; also recorded: elevated | 31 fold | 80 fold | 37 fold | increased intragraft expression; also recorded: elevated | 27 fold | marked histological changes; also recorded: statistically significant (p<0.036) difference | 18 fold | – | –
CAT192: fully human recombinant anti-TGF-β antibody generated by phage display; specifically binds TGF-β1 only | – | – | – | – | – | – | – | – | – | – | ~8.4 pM | specifically binds TGF-β1 only
